Among the data in US11065253B2, “Arylquinazolines” (Merck Patent GmbH, priority 2013, dated 2021) are IC50 values, retold here.

Each structure is given as a SMILES string. pIC50: −log10 of the molar value. A value given as a limit tells only on which side of the number the result lay.

The test system of one assay is phospho-serine 2056 DNA-PK in HCT116 cells. The assay is described as follows: DNA-PK phosphorylation at serine 2056 (cellular), ELISA in bleomycin-treated HCT116 cells. The class given is cell-based. Particulars: Homo sapiens, HCT-116, 6 h, cellular; HCT116 cells, 10 μM bleomycin, six hours; read-out: IC50 pDNA-PK. In short, it runs like this: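 Chemiluminescent ELISA quantified DNA-PK Ser2056 phosphorylation relative to total DNA-PKcs in HCT116 cells. Cells received compounds together with 10 μM bleomycin for 6 h; DMSO served as blank.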
On to `COc1ccnnc1C(O)c1cc(-c2ncnc3cc(N4CCOCC4)ccc23)c(F)cc1Cl` (centres unmarked) [Example 3, [2-Chloro-4-fluoro-5-(7-morpholin-4-yl-quinazolin-4-yl)phenyl]-(4-methoxy-pyridazin-3-yl)methanol], for which the pIC50 is 5.30 to 6.30.
The same measure, in the same setting: the value for `Cc1cnnc(C(O)c2cc(-c3ncnc4cc(N5CCOCC5)ccc34)c(F)cc2Cl)c1` (centres unmarked) [Example 46, [2-Chloro-4-fluoro-5-(7-morpholin-4-yl-quinazolin-4-yl)phenyl]-(5-methylpyridazin-3-yl)methanol] was 5.00 to 5.30.
Regarding `NCCn1nc(C(O)c2cc(-c3ncnc4cc(N5CCOCC5)ccc34)c(F)cc2Cl)ccc1=O` (centres unmarked) [Example 94, 2-(2-Amino-ethyl)-6-{[2-Chloro-4-fluoro-5-(7-morpholin-4-yl-quinazolin-4-yl)phenyl]-hydroxy-methyl}-2H-pyridazin-3-one], the pIC50 was 4.52 to 5.00.
Consider `COc1cnc(C(O)c2ccc(OC)c(-c3ncnc4cc(N5CCOCC5)ccc34)c2)cn1` (centres unmarked) [Example 61, [4-methoxy-3-(7-morpholin-4-yl-quinazolin-4-yl)phenyl]-(5-methoxypyrazin-2-yl)methanol], for which the pIC50 was 4.52 to 5.00.
On to `OC(c1ccc(F)c(-c2ncnc3cc(N4CCOCC4)ccc23)c1)c1ncccc1Cl` (centres unmarked) [Example 42, (3-Chloro-pyridin-2-yl)-[4-fluoro-3-(7-morpholin-4-yl-quinazolin-4-yl)phenyl]-methanol], for which the pIC50 was above 6.30.

Staying with this assay, now noted: Homo sapiens, HCT-116, cellular DNA-PK phosphorylation at serine 2056, HCT116 cells; read-out: IC50 pDNA-PK.
As to `OC(c1ccc(F)c(-c2ncnc3cc(N4CCOCC4)ccc23)c1)c1ncccc1Cl` (centres unmarked) [Example 465, (3-Chloro-pyridin-2-yl)-[4-fluoro-3-(7-morpholin-4-yl-quinazolin-4-yl)-phenyl]methanol], the negative logarithm of the IC50 (pIC50) is above 6.30.
Take `Cn1c(C(O)c2cc(-c3ncnc4cc(N5CCOCC5)ccc34)c(F)cc2F)cccc1=O` (centres unmarked) [Example 380, 6-{[2,4-Difluoro-5-(7-morpholin-4-yl-quinazolin-4-yl)-phenyl]hydroxy-methyl}-1-methyl-1H-pyridin-2-one (Ena 2)]: the pIC50 was 5.30 to 6.30.
Take `OC(c1ccc(F)c(-c2ncnc3cc(N4CCOCC4)ccc23)c1)c1ncnc2ccoc12` (centres unmarked) [Example 442, [4-Fluoro-3-(7-morpholin-4-yl-quinazolin-4-yl)-phenyl]furo[3,2-d}-pyrimidin-4-yl-methanol]: the pIC50 is above 6.30.
Regarding `Cn1cnc2ccnc(C(O)c3ccc(F)c(-c4ncnc5cc(N6CCOCC6)ccc45)c3)c21` (centres unmarked) [Example 461, [4-Fluoro-3-(7-morpholin-4-yl-quinazolin-4-yl)-phenyl]-(3-methyl-3H-imidazo[4,5-c]-pyridin-4-yl)methanol], the pIC50 was above 6.30.
`Cc1nccnc1C(O)c1cc(-c2ncnc3cc(N4CCOCC4)ccc23)ccc1F` (centres unmarked) [Example 393, [2-Fluoro-5-(7-morpholin-4-yl-quinazolin-4-yl)-phenyl]-(3-methyl-pyrazin-2-yl)-methanol]: the pIC50 is 5.00 to 5.30.

Still in this assay, the particulars now being: Homo sapiens, HCT-116, phospho-serine 2056 DNA-PK, bleomycin-treated HCT116 cells; class symbols A-D; read-out: IC50 pDNA-PK.
On to `OCc1csc([C@H](O)c2cc(-c3ncnc4cc(N5CCOCC5)ccc34)c(F)cc2Cl)n1` [Example 186, (R)-[2-Chloro-4-fluoro-5-(7-morpholin-4-yl-quinazolin-4-yl)-phenyl]-(4-hydroxymethyl-thiazol-2-yl)-methanol], for which the pIC50 was 5.00 to 5.30.
`COc1nnc(C(O)c2cc(-c3ncnc4cc(N5CCOCC5)ccc34)c(F)cc2Cl)cc1C` (centres unmarked) [Example 110, [2-Chloro-4-fluoro-5-(7-morpholin-4-yl-quinazolin-4-yl)-phenyl]-(6-methoxy-5-methylpyridazin-3-yl)methanol]: the pIC50 was 5.30 to 6.30.
In the case of `Cc1csc(C(O)c2cc(-c3ncnc4cc(N5CCOCC5)ccc34)c(F)cc2Cl)n1` (centres unmarked) [Example 181, [2-Chloro-4-fluoro-5-(7-morpholin-4-yl-quinazolin-4-yl)-phenyl]-(4-methyl-thiazol-2-yl)-methanol], the pIC50 is 5.30 to 6.30.
On to `OC(c1ccc(F)c(-c2ncnc3cc(N4CCOCC4)ccc23)c1)c1ccc(OC(F)F)nn1` (centres unmarked) [Example 121, (6-Difluoro-methoxy-pyridazin-3-yl)-[4-fluoro-3-(7-morpholin-4-yl-quinazolin-4-yl)-phenyl]methanol], for which the pIC50 was 5.30 to 6.30.
On to `COc1ccc(C(O)c2cc(-c3nc(Cl)nc4cc(N5CCOCC5)ccc34)c(F)cc2Cl)nn1` (centres unmarked) [Example 132, [2-Chloro-5-(2-chloro-7-morpholin-4-yl-quinazolin-4-yl)-4-fluorophenyl]-(6-methoxy-pyridazin-3-yl)-methanol], for which the pIC50 was 5.30 to 6.30.
For the molecule `OCc1csc(C(O)c2cc(-c3ncnc4cc(N5CCOCC5)ccc34)c(F)cc2Cl)n1` (centres unmarked) [Example 142, [2-Chloro-4-fluoro-5-(7-morpholin-4-yl-quinazolin-4-yl)-phenyl]-(4-hydroxymethyl-thiazol-2-yl)-methanol], the negative-log IC50 (pIC50) is 5.30 to 6.30.
Still for that read-out and setting: the value for `N#CCCOc1ccc(C(O)c2cc(-c3ncnc4cc(N5CCOCC5)ccc34)c(F)cc2Cl)nn1` (centres unmarked) [Example 107, 3-(6-{[2-Chloro-4-fluoro-5-(7-morpholin-4-yl-quinazolin-4-yl)-phenyl]hydroxy-methyl}pyridazin-3-yl-oxy)propionitrile] was 5.30 to 6.30.

The assay is the same for the next values; noted with them: Homo sapiens, HCT-116, phospho-serine 2056 DNA-PK, bleomycin-treated HCT116 cells; read-out: IC50 pDNA-PK.
In the case of `Oc1ncnc(C(O)c2cc(-c3ncnc4cc(N5CCOCC5)ccc34)ccc2Cl)c1Cl` (centres unmarked) [Example 330, 5-Chloro-6-{[2-chloro-5-(7-morpholin-4-yl-quinazolin-4-yl)-phenyl]hydroxy-methyl}pyrimidin-4-ol], the pIC50 was 4.52 to 5.00.
`COC(c1ccc(F)c(-c2ncnc3cc(N4CCOCC4)ccc23)c1)c1nccnc1C` (centres unmarked) [Example 353, 4-{2-Fluoro-5-[methoxy-(3-methyl-pyrazin-2-yl)methyl]-phenyl}-7-morpholin-4-ylquinazoline (Ena 2)]: the pIC50 was 4.52 to 5.00.
`Cn1nc(C(O)c2ccc(F)c(-c3ncnc4cc(N5CCOCC5)ccc34)c2)ccc1=O` (centres unmarked) [Example 326, 6-{[4-Fluoro-3-(7-morpholin-4-yl-quinazolin-4-yl)-phenyl]hydroxy-methyl}-2-methyl-2H-pyridazin-3-one]: the pIC50 is 5.30 to 6.30.
Same read-out and setting: the value for `COc1nnccc1C(C(N)=O)c1cc(-c2ncnc3cc(N4CCOCC4)ccc23)c(F)cc1Cl` (centres unmarked) [Example 307, 2-[2-Chloro-4-fluoro-5-(7-morpholin-4-yl-quinazolin-4-yl)-phenyl]-2-(3-methoxypyridazin-4-yl)acetamide] was 5.00 to 5.30; that for `NC(=O)C(c1ccc(F)c(-c2ncnc3cc(N4CCOCC4)ccc23)c1)c1ncccc1Cl` (centres unmarked) [Example 313, 2-(3-Chloro-pyridin-2-yl)-2-[4-fluoro-3-(7-morpholin-4-yl-quinazolin-4-yl)-phenyl]acetamide] was 5.00 to 5.30; that for `OC(c1ccc(F)c(-c2ncnc3cc(N4CCOCC4)ccc23)c1)c1ncnn2cccc12` (centres unmarked) [Example 345, [4-Fluoro-3-(7-morpholin-4-yl-quinazolin-4-yl)-phenyl]pyrrolo[2,1-f]-[1,2,4]triazin-4-yl-methanol] was above 6.30.
For `NC(=O)C(c1cc(-c2ncnc3cc(N4CCOCC4)ccc23)c(F)cc1Cl)c1ncnn2cccc12` (centres unmarked) [Example 309, 2-[2-Chloro-4-fluoro-5-(7-morpholin-4-yl-quinazolin-4-yl)-phenyl]-2-[3H-pyrrolo[2,1-f][1,2,4]-triazin-(4E)-ylidene]-acetamide], the pIC50 is 4.52 to 5.00.
With `NC(=O)C(c1cncc(Cl)c1)c1ccc(F)c(-c2ncnc3cc(N4CCOCC4)ccc23)c1` (centres unmarked) [Example 297, 2-(5-Chloro-pyridin-3-yl)-2-[4-fluoro-3-(7-morpholin-4-yl-quinazolin-4-yl)-phenyl]acetamide], the pIC50 was 4.52 to 5.00.

The same assay, now with this note: cellular DNA-PK phosphorylation at serine 2056, HCT116 cells; read-out: IC50 pDNA-PK.
Turning to `Cn1cnc2ncnc(C(O)c3cc(-c4ncnc5cc(N6CCOCC6)ccc45)c(F)cc3Cl)c21` (centres unmarked) [Example 423, [2-Chloro-4-fluoro-5-(7-morpholin-4-yl-quinazolin-4-yl)-phenyl]-(7-methyl-7H-purin-6-yl)-methanol], the pIC50 was 5.00 to 5.30.
On the same count and under the same terms, with `OC(c1cccnn1)c1cc(-c2ncnc3cc(N4CCOCC4)ccc23)ccc1Cl` (centres unmarked) [Example 479, [2-Chloro-5-(7-morpholin-4-yl-quinazolin-4-yl)-phenyl]pyridazin-3-yl-methanol] the figure was above 6.30.
On to `OC(c1cc(-c2ncnc3cc(N4CCOCC4)ccc23)c(F)cc1F)c1ncnc2ccoc12` (centres unmarked) [Example 446, [2,4-Difluoro-5-(7-morpholin-4-yl-quinazolin-4-yl)-phenyl]furo[3,2-d}-pyrimidin-4-yl-methanol], for which the negative logarithm of the IC50 (pIC50) is 5.30 to 6.30.

Staying with this assay, now noted: cellular; HCT116 cells, 10 μM bleomycin, six hours; read-out: IC50 pDNA-PK.
In the case of `OC(c1ccc(F)c(-c2ncnc3cc(N4CCOCC4)sc23)c1)c1nccnc1Cl` (centres unmarked) [Example 37, (3-Chloropyrazin-2-yl)-[4-fluoro-3-(6-morpholin-4-ylthieno[3,2-d}pyrimidin-4-yl)phenyl]-methanol], the pIC50 is above 6.30.
Take `COc1nnc(Cl)cc1C(O)c1ccc(F)c(-c2ncnc3cc(N4CCOCC4)ccc23)c1` (centres unmarked) [Example 9]: the pIC50 was above 6.30.

Still in this assay, the particulars now being: phospho-serine 2056 DNA-PK, bleomycin-treated HCT116 cells; class symbols A-D; read-out: IC50 pDNA-PK.
Regarding `Cc1nc([C@H](O)c2cnc(F)c(-c3ncnc4cc(N5CCOCC5)ncc34)c2)sc1C` [Example 204, (R)-(4,5-Dimethyl-thiazol-2-yl)-[6-fluoro-5-(7-morpholin-4-yl-pyrido[4,3-d}-pyrimidin-4-yl)-pyridin-3-yl]-methanol], the pIC50 was 4.52 to 5.00.

Staying with this assay, now noted: phospho-serine 2056 DNA-PK, bleomycin-treated HCT116 cells; read-out: IC50 pDNA-PK.
Turning to `[2H]C1([2H])OC([2H])([2H])C([2H])([2H])N(c2ccc3c(-c4cc(C(O)c5ccc(OC)nn5)c(Cl)cc4F)ncnc3c2)C1([2H])[2H]` (centres unmarked) [Example 244, [2-Chloro-4-fluoro-5-[7-(2,2,3,3,5,5,6,6-octadeuterio-morpholin-4-yl)quinazolin-4-yl]phenyl]-(6-methoxypyridazin-3-yl)methanol], the pIC50 was above 6.30.
